According to patent publication US12479840B2, “HMG-CoA reductase degradation inducing compound” (Uppthera, priority 2020, dated 2025):

Target: T1, HMG-CoA reductase (Homo sapiens, UniProt P04035)
T1 construct: endogenous in cells; host or cells: HepG2 (Korea Cell Line Bank)
T1 sequence (P04035 1-888): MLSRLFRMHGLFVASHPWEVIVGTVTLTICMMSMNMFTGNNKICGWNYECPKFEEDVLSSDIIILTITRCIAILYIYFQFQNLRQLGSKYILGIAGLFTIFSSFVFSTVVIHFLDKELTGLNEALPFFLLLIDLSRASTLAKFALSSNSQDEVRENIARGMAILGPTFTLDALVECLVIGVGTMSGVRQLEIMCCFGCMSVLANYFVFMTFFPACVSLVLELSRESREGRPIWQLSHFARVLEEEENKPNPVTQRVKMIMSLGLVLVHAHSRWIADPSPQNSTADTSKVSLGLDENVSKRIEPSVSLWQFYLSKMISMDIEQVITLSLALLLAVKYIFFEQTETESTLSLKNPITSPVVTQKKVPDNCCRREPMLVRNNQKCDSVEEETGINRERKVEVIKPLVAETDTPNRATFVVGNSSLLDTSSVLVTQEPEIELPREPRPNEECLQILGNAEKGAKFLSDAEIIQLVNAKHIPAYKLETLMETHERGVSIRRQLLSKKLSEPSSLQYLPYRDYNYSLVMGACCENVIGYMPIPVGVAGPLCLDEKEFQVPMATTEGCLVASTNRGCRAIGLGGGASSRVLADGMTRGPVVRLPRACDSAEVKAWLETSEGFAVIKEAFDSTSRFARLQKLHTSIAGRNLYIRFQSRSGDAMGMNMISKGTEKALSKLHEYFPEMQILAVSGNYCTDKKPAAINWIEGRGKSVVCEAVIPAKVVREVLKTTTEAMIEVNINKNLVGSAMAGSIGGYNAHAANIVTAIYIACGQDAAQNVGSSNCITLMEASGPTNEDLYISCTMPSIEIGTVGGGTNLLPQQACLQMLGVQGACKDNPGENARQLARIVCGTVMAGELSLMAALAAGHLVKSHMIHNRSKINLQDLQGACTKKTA
Assay: HMG-CoA reductase (HMGCR) degradation in HepG2 cells by western blotting
Type: cell-based
Conditions: treated for 18 hours, ratio of HMG-CoA reductase to GAPDH, read-out: DC50
Outline: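 Western blot read-out: HMGCR protein probed (1:500, 16 hours at 4° C) alongside GAPDH loading control on 15 μg BCA-normalised RIPA lysates. Lysates came from HepG2 cells (P105–P110) exposed for 18 hours to a 10-point, three-fold series starting at 3 μM.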

`C[C@H]1C=C2C=C[C@H](C)[C@H](CC[C@@H]3C[C@@H](O)CC(=O)O3)[C@H]2[C@@H](OC(=O)C(C)(C)CCC(=O)NCCOCCOCCNc2cccc3c2C(=O)N(C2CCC(=O)NC2=O)C3=O)C1` (stereo partly drawn) [Compound 2, (1S,3R,7S,8S,8aR)-8-(2-((2R,4R)-4-hydroxy-6-oxotetrahydro-2H-pyran-2-yl)ethyl)-3,7-dimethyl-1,2,3,7,8,8a-hexahydronaphthalen-1-yl 5-((2-(2-(2-((2-(2,6-dioxopiperidin-3-yl)-1,3-dioxoisoindolin-4-yl)amino)ethoxy)ethoxy)ethyl)amino)-2,2-dimethyl-5-oxopentanoate] and `CO[C@H]1CC(=O)O[C@H](CC[C@@H]2[C@@H]3C(=C[C@H](C)C[C@@H]3OC(=O)NCCOCCOCCNc3cccc4c3C(=O)N(C3CCC(=O)NC3=O)C4=O)C=C[C@@H]2C)C1` (stereo partly drawn) [Compound 69, (1S,3R,7S,8S,8aR)-8-(2-((2R,4R)-4-methoxy-6-oxotetrahydro-2H-pyran-2-yl)ethyl)-3,7-dimethyl-1,2,3,7,8,8a-hexahydronaphthalen-1-yl (2-(2-(2-((2-(2,6-dioxopiperidin-3-yl)-1,3-dioxoisoindolin-4-yl)amino)ethoxy)ethoxy)ethyl)carbamate] cannot be ordered by DC50: under 50 nM for the first, under 50 nM for the second.

First: C[C@H]1C=C2C=C[C@H](C)[C@H](CC[C@@H]3C[C@@H](O[Si](C)(C)C(C)(C)C)CC(=O)O3)[C@H]2[C@@H](OC(=O)NCCCCCCCNc2cccc3c2C(=O)N(C2CCC(=O)NC2=O)C3=O)C1 (stereo partly drawn) [Compound 53, (1S,3R,7S,8S,8aR)-8-(2-((2R,4R)-4-((tert-butyldimethylsilyl)oxy)-6-oxotetrahydro-2H-pyran-2-yl)ethyl)-3,7-dimethyl-1,2,3,7,8,8a-hexahydronaphthalen-1-yl (7-((2-(2,6-dioxopiperidin-3-yl)-1,3-dioxoisoindolin-4-yl)amino)heptyl)carbamate]
Second: C[C@H]1C=C2C=C[C@H](C)[C@H](CC[C@@H]3C[C@@H](O)CC(=O)O3)[C@H]2[C@@H](OC(=O)NCCCCCCCNc2cccc3c2C(=O)N(C2CCC(=O)NC2=O)C3=O)C1 (stereo partly drawn) [Compound 60, (1S,3R,7S,8S,8aR)-8-(2-((2R,4R)-4-hydroxy-6-oxotetrahydro-2H-pyran-2-yl)ethyl)-3,7-dimethyl-1,2,3,7,8,8a-hexahydronaphthalen-1-yl (7-((2-(2,6-dioxopiperidin-3-yl)-1,3-dioxoisoindolin-4-yl)amino)heptyl)carbamate]
The DC50 of the first is lower: under 50 nM for the first, 50 to 500 nM for the second.

First: C[C@H]1C=C2C=C[C@H](C)[C@H](CC[C@@H]3C[C@@H](O)CC(=O)O3)[C@H]2[C@@H](OC(=O)NCCCCCNC(=O)COc2cccc3c2C(=O)N(C2CCC(=O)NC2=O)C3=O)C1 (stereo partly drawn) [Compound 75, (1S,3R,7S,8S,8aR)-8-(2-((2R,4R)-4-hydroxy-6-oxotetrahydro-2H-pyran-2-yl)ethyl)-3,7-dimethyl-1,2,3,7,8,8a-hexahydronaphthalen-1-yl (5-(2-((2-(2,6-dioxopiperidin-3-yl)-1,3-dioxoisoindolin-4-yl)oxy)acetamido)pentyl)carbamate]
Second: C[C@H]1C=C2C=C[C@H](C)[C@H](CC[C@@H]3C[C@@H](O)CC(=O)O3)[C@H]2[C@@H](OC(=O)NCCCCCCCCNC(=O)COc2cccc3c2C(=O)N(C2CCC(=O)NC2=O)C3=O)C1 (stereo partly drawn) [Compound 97, (1S,3R,7S,8S,8aR)-8-(2-((2R,4R)-4-hydroxy-6-oxotetrahydro-2H-pyran-2-yl)ethyl)-3,7-dimethyl-1,2,3,7,8,8a-hexahydronaphthalen-1-yl (8-(2-((2-(2,6-dioxopiperidin-3-yl)-1,3-dioxoisoindolin-4-yl)oxy)acetamido)octyl)carbamate]
The DC50 of the first is lower: under 50 nM for the first, 50 to 500 nM for the second.

`Cc1ncsc1-c1ccc(CNC(=O)[C@@H]2C[C@@H](O)CN2C(=O)[C@@H](NC(=O)C2(F)CC2)C(C)(C)C)c(OCCCCCCCCCCNC(=O)O[C@H]2C[C@@H](C)C=C3C=C[C@H](C)[C@H](CC[C@@H]4C[C@@H](O)CC(=O)O4)[C@H]32)c1` [Compound 167, (1S,3R,7S,8S,8aR)-8-(2-((2R,4R)-4-hydroxy-6-oxotetrahydro-2H-pyran-2-yl)ethyl)-3,7-dimethyl-1,2,3,7,8,8a-hexahydronaphthalen-1-yl (10-(2-(((2S,4R)-1-((S)-2-(1-fluorocyclopropane-1-carboxamido)-3,3-dimethylbutanoyl)-4-hydroxypyrrolidine-2-carboxamido)methyl)-5-(4-methylthiazol-5-yl)phenoxy)decyl)carbamate] and `Cc1ncsc1-c1ccc(CNC(=O)[C@@H]2C[C@@H](O)CN2C(=O)[C@@H](NC(=O)C2(F)CC2)C(C)(C)C)c(OCCOCCNC(=O)O[C@H]2C[C@@H](C)C=C3C=C[C@H](C)[C@H](CC[C@@H]4C[C@@H](O[Si](C)(C)C(C)(C)C)CC(=O)O4)[C@H]32)c1` [Compound 27, (1S,3R,7S,8S,8aR)-8-(2-((2R,4R)-4-((tert-butyldimethylsilyl)oxy)-6-oxotetrahydro-2H-pyran-2-yl)ethyl)-3,7-dimethyl-1,2,3,7,8,8a-hexahydronaphthalen-1-yl (2-(2-(2-(((2S,4R)-1-((S)-2-(1-fluorocyclopropane-1-carboxamido)-3,3-dimethylbutanoyl)-4-hydroxypyrrolidine-2-carboxamido)methyl)-5-(4-methylthiazol-5-yl)phenoxy)ethoxy)ethyl)carbamate] cannot be ordered by DC50: under 50 nM for the first, under 50 nM for the second.

First: C[C@H]1C=C2C=C[C@H](C)[C@H](CC[C@@H]3C[C@@H](O[Si](C)(C)C(C)(C)C)CC(=O)O3)[C@H]2[C@@H](OC(=O)NCCOCCOCCOCCOCCOCCNc2cccc3c2C(=O)N(C2CCC(=O)NC2=O)C3=O)C1 (stereo partly drawn) [Compound 49, (1S,3R,7S,8S,8aR)-8-(2-((2R,4R)-4-((tert-butyldimethylsilyl)oxy)-6-oxotetrahydro-2H-pyran-2-yl)ethyl)-3,7-dimethyl-1,2,3,7,8,8a-hexahydronaphthalen-1-yl (17-((2-(2,6-dioxopiperidin-3-yl)-1,3-dioxoisoindolin-4-yl)amino)-3,6,9,12,15-pentaoxaheptadecyl)carbamate]
Second: C[C@H]1C=C2C=C[C@H](C)[C@H](CC[C@@H]3C[C@@H](O[Si](C)(C)C(C)(C)C)CC(=O)O3)[C@H]2[C@@H](OC(=O)NCCOCCOCC(=O)Nc2cccc3c2C(=O)N(C2CCC(=O)NC2=O)C3=O)C1 (stereo partly drawn) [Compound 142, (1S,3R,7S,8S,8aR)-8-(2-((2R,4R)-4-((tert-butyldimethylsilyl)oxy)-6-oxotetrahydro-2H-pyran-2-yl)ethyl)-3,7-dimethyl-1,2,3,7,8,8a-hexahydronaphthalen-1-yl (2-(2-(2-((2-(2,6-dioxopiperidin-3-yl)-1,3-dioxoisoindolin-4-yl)amino)-2-oxoethoxy)ethoxy)ethyl)carbamate]
The DC50 of the first is lower: under 50 nM for the first, 50 to 500 nM for the second.

`C[C@H]1C=C2C=C[C@H](C)[C@H](CC[C@@H]3C[C@@H](O[Si](C)(C)C(C)(C)C)CC(=O)O3)[C@H]2[C@@H](OC(=O)NCCOCCNC(=O)COc2cccc3c2C(=O)N(C2CCC(=O)NC2=O)C3=O)C1` (stereo partly drawn) [Compound 128, (1S,3R,7S,8S,8aR)-8-(2-((2R,4R)-4-((tert-butyldimethylsilyl)oxy)-6-oxotetrahydro-2H-pyran-2-yl)ethyl)-3,7-dimethyl-1,2,3,7,8,8a-hexahydronaphthalen-1-yl (2-(2-(2-((2-(2,6-dioxopiperidin-3-yl)-1,3-dioxoisoindolin-4-yl)oxy)acetamido)ethoxy)ethyl)carbamate] and `C[C@H]1C=C2C=C[C@H](C)[C@H](CC[C@@H]3C[C@@H](O[Si](C)(C)C(C)(C)C)CC(=O)O3)[C@H]2[C@@H](OC(=O)NCCOCCOCCNc2cccc3c2CN(C2CCC(=O)NC2=O)C3=O)C1` (stereo partly drawn) [Compound 65, (1S,3R,7S,8S,8aR)-8-(2-((2R,4R)-4-((tert-butyldimethylsilyl)oxy)-6-oxotetrahydro-2H-pyran-2-yl)ethyl)-3,7-dimethyl-1,2,3,7,8,8a-hexahydronaphthalen-1-yl (2-(2-(2-((2-(2,6-dioxopiperidin-3-yl)-1-oxoisoindolin-4-yl)amino)ethoxy)ethoxy)ethyl)carbamate] cannot be ordered by DC50: under 50 nM for the first, under 50 nM for the second.

Compound `C[C@H]1C=C2C=C[C@H](C)[C@H](CC[C@@H]3C[C@@H](O)CC(=O)O3)[C@H]2[C@@H](OC(=O)NCCCCCCCCCNc2cccc3c2C(=O)N(C2CCC(=O)NC2=O)C3=O)C1` (stereo partly drawn) [Compound 62, (1S,3R,7S,8S,8aR)-8-(2-((2R,4R)-4-hydroxy-6-oxotetrahydro-2H-pyran-2-yl)ethyl)-3,7-dimethyl-1,2,3,7,8,8a-hexahydronaphthalen-1-yl (9-((2-(2,6-dioxopiperidin-3-yl)-1,3-dioxoisoindolin-4-yl)amino)nonyl)carbamate] has a DC50 of 50 to 500 nM.
